# Experimental data: patent US12012403B2, “Aryl sulfonyl compounds as CCR6 inhibitors” (CHEMOCENTRYX, INC., priority 2021, dated 2024)
# Molecular target: T1, human CCR6 (Homo sapiens, UniProt P51684)
# T1 construct: expressed in transfected cells; host or cells: Ba/F3 cells (murine pro-B line), hCCR6-transfected, CMV promoter, sodium butyrate induction
# T1 sequence (P51684 1-374): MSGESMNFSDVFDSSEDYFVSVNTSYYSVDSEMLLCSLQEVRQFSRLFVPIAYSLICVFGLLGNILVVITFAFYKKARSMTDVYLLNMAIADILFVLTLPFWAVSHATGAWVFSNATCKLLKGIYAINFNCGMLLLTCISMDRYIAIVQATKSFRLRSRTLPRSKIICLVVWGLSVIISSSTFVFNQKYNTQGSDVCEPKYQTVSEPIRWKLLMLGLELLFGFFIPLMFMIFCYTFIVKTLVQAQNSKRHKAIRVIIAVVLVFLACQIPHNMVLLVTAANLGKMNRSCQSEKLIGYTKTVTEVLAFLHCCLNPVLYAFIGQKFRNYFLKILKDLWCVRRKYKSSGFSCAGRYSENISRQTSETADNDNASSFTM
# Test: Migration (chemotaxis) assay, hCCR6-transfected Ba/F3 cells toward CCL20
# Format: cell-based
# Conditions: hCCR6-transfected Ba/F3 cells in human serum; recombinant human CCL20 10 nM; 37° C. 45 minutes; read-out: Potency (IC50 value in the migration assay)
# Outline: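 Ba/F3 cells stably transfected with human CCR6 (CMV promoter), pre-induced 24 hr with sodium butyrate, suspended at 4 million/ml in human serum with test compound serially diluted from 10 μM final. Migration through 5-μm polycarbonate membrane toward 10 nM CCL20 (EC50) for 45 min at 37 °C; migrated cells quantified by CyQUANT fluorescence.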
row,IC50,SMILES
1,< 5 nM,CC(C)(C)OC(=O)NCCn1cc(C#N)c2cc(-c3ccc(S(=O)(=O)N4CCC(Nc5ccc(C(F)(F)F)cn5)CC4)cc3)cnc21 [Example 1.014]
2,100 to 10000 nM,O=S(=O)(c1ccc(N2CCC(O)CC2)nc1)N1CCC(Nc2ccc(C(F)(F)F)cn2)CC1 [Example 1.209]
3,< 5 nM,NC(=O)c1n[nH]c2ccc(-c3ccc(S(=O)(=O)N4CCC(Nc5ccc(C(F)(F)F)cn5)CC4)cc3)cc12 [Example 1.095]
4,5 to 100 nM,Cc1nc2cc(-c3ccc(S(=O)(=O)N4CCC(Nc5ccc(C(F)(F)F)cn5)CC4)cc3)ccc2[nH]1 [Example 1.092]
5,5 to 100 nM,O=c1[nH]c2ccc(-c3ccc(S(=O)(=O)N4CCC(Nc5ccc(C(F)(F)F)cn5)CC4)cc3)cc2n1C1CC1 [Example 1.052]
6,5 to 100 nM,NC(=O)N1CCC2(CCN(c3ccc(S(=O)(=O)N4CCC(Nc5ccc(C(F)(F)F)cn5)CC4)cc3)C2)C1 (stereo not drawn) [Example 1.175]
